16 compounds from US9513294B2, “Megastokes amino-triazolyl-BODIPY compounds and applications to live neuron staining and human serum albumin FA1 drug site probing” (National University of Singapore, priority 2012, dated 2016) can be followed below.

A short description of data set [1]: Absorbance and fluorescence emission spectra (SpectraMax M2). The class given is physicochemical. Particulars: BDC library, Table 2. Here is the method:
BDC-8 (Blue): absorbance λmax=473 nm, emission λmax=585 nm; MK101-8 (Green): absorbance λmax=474 nm, emission λmax=563 nm; MKHA374-48 (Yellow): absorbance λmax=468 nm, λem=557 nm. The corresponding spectra of a reported BODIPY (BD-27; Red) are also included for comparison: absorbance λmax=551 nm, emission λmax=568 nm. The structures of BDC-8, MK101-8, MKHA374-48 and BD-27 are also depicted.
(§1) ^1H-NMR, ^19F-NMR and ^13C-NMR spectra were recorded on Bruker ACF300 (300 MHz), DPX300 (300 MHz) and AMX500 (500 MHz) spectrometers. High resolution mass spectra (ESI) were obtained on a Finnigan/MAT 95XL-T spectrometer. Spectroscopic and quantum yield data were measured on a SpectraMax M2 spectrophotometer (Molecular Devices). Data analysis was performed using GraphPrism 5.0. Analytical characterization was performed on a HPLC-MS (Agilent-1200 series) with a DAD detector and a single quadrupole mass spectrometer (6130 series) with an ESI probe. Analytical HPLC method: eluents, A: H2O (0.1% HCOOH), B: CH3CN (0.1% HCOOH), gradient 5% B to 95% B (10 min). Reverse-phase Phenomenex C18 Luna column (4.6×50 mm^2, 3.5 […]), flow rate: 1 mL/min.

A short description of data set [2]: Quantum yield measurements versus Acridine Yellow in EtOH. Particulars: BDC library, Table 2; excitation 460 nm. Format: physicochemical. Here is the method:
as §1
Quantum yields were calculated by measuring the integrated emission area of the fluorescent spectra and comparing to the area measured for Acridine Yellow in EtOH when excited at 460 nm (Φfluorescence^AcridineYellow=0.47). Quantum yields for the amino-triazolyl-BODIPYs were calculated using the equation below, where F represents the area of fluorescent emission, η is the refractive index of the solvent, and Abs is absorbance at the excitation wavelength selected for standards and samples. Emission was integrated between 510 and 700 nm.

The structures appear in SMILES notation.

For the compound `COc1cccc(-c2cn(-c3ccc4n3[B-](F)(F)[N+]3=C(N5CCCCC5)C=CC3=C4c3ccc(N)cc3)nn2)c1` [BDC-27], in data set [1], the “λmax Absorp.” value was determined as 472 nm and the “λmax Emission” value was found to be 565 nm. Moreover, the “φ (quantum yield)” value in data set [2] turned out to be 0.17%.
In the case of `CCCCCc1ccc(-c2cn(-c3ccc4n3[B-](F)(F)[N+]3=C(N5CCCCC5)C=CC3=C4c3ccc(N)cc3)nn2)cc1` [BDC-29], in data set [1], the “λmax Absorp.” value was found to be 471 nm and the “λmax Emission” value is given as 586 nm. In addition, the “φ (quantum yield)” value in data set [2] is 0.23%.
Regarding `Nc1ccc(C2=C3C=CC(N4CCCCC4)=[N+]3[B-](F)(F)n3c2ccc3-n2cc(-c3cc(C(F)(F)F)cc(C(F)(F)F)c3)nn2)cc1` [BDC-30], in data set [1], the “λmax Absorp.” value worked out at 466 nm and the “λmax Emission” value is 547 nm. For the same compound, the “φ (quantum yield)” value in data set [2] is listed as 0.57%.
The corresponding values for `Nc1ccc(C2=C3C=CC(N4CCCCC4)=[N+]3[B-](F)(F)n3c2ccc3-n2cc(-c3cccc(F)c3)nn2)cc1` [BDC-31] are 470 nm, 582 nm and 0.11%.
The corresponding values for `CC(C)CCc1cn(-c2ccc3n2[B-](F)(F)[N+]2=C(N4CCCCC4)C=CC2=C3c2ccc(N)cc2)nn1` [BDC-36] are 476 nm, 590 nm and 0.11%.
For `Nc1ccc(C2=C3C=CC(N4CCCCC4)=[N+]3[B-](F)(F)n3c2ccc3-n2cc(C3=CCCCC3)nn2)cc1` [BDC-37], in data set [1], the “λmax Absorp.” value worked out at 474 nm and the “λmax Emission” value amounted to 579 nm. For the same compound, the “φ (quantum yield)” value in data set [2] is on record as 0.12%.
As for `CCCCc1cn(-c2ccc3n2[B-](F)(F)[N+]2=C(N4CCCCC4)C=CC2=C3c2ccc(N)cc2)nn1` [BDC-42], in data set [1], the “λmax Absorp.” value is given as 473 nm and the “λmax Emission” value was 584 nm. For the same compound, the “φ (quantum yield)” value in data set [2] was determined as 0.19%.
As for `CC(C)Cc1cn(-c2ccc3n2[B-](F)(F)[N+]2=C(N4CCCCC4)C=CC2=C3c2ccc(N)cc2)nn1` [BDC-43], in data set [1], the “λmax Absorp.” value stood at 476 nm and the “λmax Emission” value amounted to 589 nm. Besides, the “φ (quantum yield)” value in data set [2] is listed as 0.10%.
For `CCCCCCCCc1cn(-c2ccc3n2[B-](F)(F)[N+]2=C(N4CCCCC4)C=CC2=C3c2ccc(N)cc2)nn1` [BDC-44], in data set [1], the “λmax Absorp.” value was 475 nm and the “λmax Emission” value was 583 nm. In addition, the “φ (quantum yield)” value in data set [2] is reported as 0.13%.
With `Cc1cccc(-c2cn(-c3ccc4n3[B-](F)(F)[N+]3=C(N5CCCCC5)C=CC3=C4c3ccc(N)cc3)nn2)c1` [BDC-45], in data set [1], the “λmax Absorp.” value amounted to 469 nm and the “λmax Emission” value is 556 nm. The “φ (quantum yield)” value in data set [2] came to 0.42%.
For the compound `CCc1ccc(-c2cn(-c3ccc4n3[B-](F)(F)[N+]3=C(N5CCCCC5)C=CC3=C4c3ccc(N)cc3)nn2)cc1` [BDC-46], in data set [1], the “λmax Absorp.” value was found to be 473 nm and the “λmax Emission” value is listed as 585 nm. Moreover, the “φ (quantum yield)” value in data set [2] was 0.10%.
Consider `CCCCCCc1cn(-c2ccc3n2[B-](F)(F)[N+]2=C(N4CCCCC4)C=CC2=C3c2ccc(N)cc2)nn1` [BDC-47], for which, in data set [1], the “λmax Absorp.” value came to 473 nm and the “λmax Emission” value amounted to 574 nm. Besides, in data set [2], the “φ (quantum yield)” value was determined as 0.16%.
The corresponding values for `CCCc1cn(-c2ccc3n2[B-](F)(F)[N+]2=C(N4CCCCC4)C=CC2=C3c2ccc(N)cc2)nn1` [BDC-48] are 476 nm, 582 nm and 0.10%.
For `CCCCCCCCCCc1cn(-c2ccc3n2[B-](F)(F)[N+]2=C(N4CCCCC4)C=CC2=C3c2ccc(N)cc2)nn1` [BDC-49], in data set [1], the “λmax Absorp.” value came to 475 nm and the “λmax Emission” value is 589 nm. Besides, the “φ (quantum yield)” value in data set [2] amounted to 0.12%.
The like results for `CCCCCCCc1cn(-c2ccc3n2[B-](F)(F)[N+]2=C(N4CCCCC4)C=CC2=C3c2ccc(N)cc2)nn1` [BDC-50] were, in that order, 475 nm, 577 nm and 0.13%.
As to `Nc1ccc(C2=C3C=CC(N4CCCCC4)=[N+]3[B-](F)(F)n3c2ccc3-n2cc(C3(O)CCCC3)nn2)cc1` [BDC-67], in data set [1], the “λmax Absorp.” value is listed as 478 nm and the “λmax Emission” value is 595 nm. In data set [2], the “φ (quantum yield)” value was found to be 0.09%.
